Here are results for 9 molecules from US9920075B2, “Triazolopyridine and triazolopyrimidine inhibitors of myeloperoxidase” (BRISTOL-MYERS SQUIBB COMPANY, priority 2014, dated 2018).

Assay type in all cases: biochemical
Assay [1] has as its target T1, myeloperoxidase (MPO) (Homo sapiens, UniProt P05164).
T1 sequence (P05164 49-745): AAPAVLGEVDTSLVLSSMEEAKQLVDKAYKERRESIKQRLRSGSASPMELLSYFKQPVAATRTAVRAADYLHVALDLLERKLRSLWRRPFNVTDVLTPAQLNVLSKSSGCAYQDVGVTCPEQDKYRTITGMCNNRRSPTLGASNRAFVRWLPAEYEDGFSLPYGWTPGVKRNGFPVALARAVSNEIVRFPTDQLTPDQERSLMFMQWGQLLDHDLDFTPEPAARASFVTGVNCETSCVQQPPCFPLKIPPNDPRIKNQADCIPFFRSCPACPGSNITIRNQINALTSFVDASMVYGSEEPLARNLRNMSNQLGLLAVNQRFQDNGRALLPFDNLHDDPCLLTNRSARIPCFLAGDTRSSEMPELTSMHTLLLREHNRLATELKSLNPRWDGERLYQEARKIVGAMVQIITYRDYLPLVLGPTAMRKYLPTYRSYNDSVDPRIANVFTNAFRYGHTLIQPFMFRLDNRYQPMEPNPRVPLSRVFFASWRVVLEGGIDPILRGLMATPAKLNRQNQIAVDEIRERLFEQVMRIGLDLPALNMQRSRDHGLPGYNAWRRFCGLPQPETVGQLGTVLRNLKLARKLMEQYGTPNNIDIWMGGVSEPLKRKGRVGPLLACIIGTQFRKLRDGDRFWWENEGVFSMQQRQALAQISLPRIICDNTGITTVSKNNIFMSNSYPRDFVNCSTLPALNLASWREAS
Put plainly: MPO peroxidation assay (Amplex Red assay). The settings on record: MPO peroxidation, 100 mM KPi pH 7.4, ten minute preincubation. In short, it runs like this:
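Peroxidase activity read as kinetic resorufin fluorescence after adding an Amplex Red mix (200 μM Amplex Red, 10 mM H2O2) to MPO preincubated 10 min at room temperature with inhibitor in 100 mM KPi pH 7.4. Linear-phase slopes (180–540 s) gave % inhibition, fitted with a Hill-slope model for IC50.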

Assay [2] concerns the target T1, myeloperoxidase (MPO). Kind of assay: MPO chlorination assay (APF assay). The method, then:
[formula] where A=minimal Y value (activity level of inhibited sample), B=maximal Y value (activity level of uninhibited sample), C=Log IC50, D=Hill Slope, x=concentration of inhibitor. MPO Chlorination Assay (APF Assay)
MPO chlorination activity was measured in 100 mM KPi (pH 7.4) by utilizing the non-fluorescent reagent Aminophenyl fluorescein (APF, Invitrogen Cat. #A36003). APF is cleaved by (—OCl) to yield the fluorescent compound fluorescein. […] Enzyme, inhibitor, and chloride were preincubated for ten minutes at room temperature.
After the ten minute preincubation, 25 μL of an APF mixture containing […], 120 mM NaCl and 10 μM H2O2 was added to the plate using the internal dispensing system of a Hammatsu FDSS 6000. […] IC50 values for inhibitors were calculated by taking the slope of the linear portion of the kinetic measurement (20 seconds to ˜80-120 secs).
IC50 values were calculated by determining the slope of the linear portion of the kinetic trace (180-540 secs), and using that calculated slope to determine % inhibition occurring at each concentration of inhibitor using the following equation:
(§1) [formula] where A=minimal Y value (activity level of inhibited sample), B=maximal Y value (activity level of uninhibited sample), C=Log IC50, D=Hill Slope, x=concentration of inhibitor. EPX Bromination Assay

Another assay has as its target T2, EPX (Homo sapiens, UniProt P11678).
T2 construct: purchased Lee Biosolutions 342-60
Put plainly: EPX bromination assay. On the procedure:
as §1
EPX bromination activity was measured in 100 mM KPi (pH 7.4) by monitoring the H2O2 catalyzed formation of 3-bromo tyrosine from tyrosine and potassium bromide. […] Enzyme and compound were preincubated for ten minutes at room temperature.
The reaction was allowed to proceed for 15 minutes, at which time it was quenched with 10 μL of 20% TCA. The final concentrations of all components were 0.3 μM EPX, 100 μM tyrosine, […], 5 μM H2O2, 0.1% DMSO, 2.0% TCA.
[formula] where A=minimal Y value (activity level of inhibited sample), B=maximal Y value (activity level of uninhibited sample), C=Log IC50, D=Hill Slope, x=concentration of inhibitor.
The column was maintained at 60° C. Samples were eluted using a gradient of 0%-100% B over 2.5 minutes, followed by equilibration with 100% A for 1 minute where A consisted of 0.1% TFA and B consisted of 90% MeOH/0.1% TFA at a flow rate of 0.6 mL/min.

The mark [3] stands for this setting: read-out: Amplex Red Assay IC50 value.
The mark [4] stands for this setting: MPO chlorination, 100 mM KPi pH 7.4, ten minute preincubation, read-out: APF Assay IC50 value.
Setting [5] is: EPX bromination, 100 mM KPi pH 7.4, ten minute preincubation, read-out: EPX IC50.

Broadly, the IC50 is the concentration needed to halve the response being measured.

Where two headings read alike, the source gives them in different places.

T2 sequence (P11678 251-715 limits assumed): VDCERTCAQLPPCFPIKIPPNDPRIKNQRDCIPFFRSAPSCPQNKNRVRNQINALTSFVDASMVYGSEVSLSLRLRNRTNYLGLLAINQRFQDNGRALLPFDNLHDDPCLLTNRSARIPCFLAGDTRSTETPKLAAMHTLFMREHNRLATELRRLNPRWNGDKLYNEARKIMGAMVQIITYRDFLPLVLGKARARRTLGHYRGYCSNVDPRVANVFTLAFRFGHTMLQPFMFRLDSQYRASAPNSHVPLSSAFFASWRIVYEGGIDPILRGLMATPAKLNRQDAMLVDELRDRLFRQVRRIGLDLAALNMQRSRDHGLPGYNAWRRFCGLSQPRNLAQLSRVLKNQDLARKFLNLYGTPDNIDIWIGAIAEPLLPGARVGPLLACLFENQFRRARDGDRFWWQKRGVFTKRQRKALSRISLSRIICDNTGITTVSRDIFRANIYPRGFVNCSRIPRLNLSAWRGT
T2 sequence (P11678 140-250 limits assumed): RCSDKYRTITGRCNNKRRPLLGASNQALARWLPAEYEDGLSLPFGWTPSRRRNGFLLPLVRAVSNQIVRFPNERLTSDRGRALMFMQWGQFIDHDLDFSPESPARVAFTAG

Consider `CCn1nc(COc2cc(N)nc3[nH]nnc23)cc1C(F)(F)F` [Example 6, 7-((1-Ethyl-5-(trifluoromethyl)-1H-pyrazol-3-yl)methoxy)-3H-[1,2,3]triazolo[4,5-b]pyridin-5-amine], for which the IC50 turned out to be 0.02 µM at myeloperoxidase (MPO) [1] (setting [3]), 0.13 µM on myeloperoxidase (MPO) [2] (setting [4]) and 0.07 µM on EPX (setting [5]).
On the same counts, the results for `COc1ccc(-n2nc(C)c(COc3cc(N)nc4[nH]nnc34)n2)cc1` [Example 11, 7-((2-(4-Methoxyphenyl)-5-methyl-2H-1,2,3-triazol-4-yl)methoxy)-3H-[1,2,3]triazolo[4,5-b]pyridin-5-amine] are 0.02 µM, 0.17 µM and 0.04 µM.
On the same counts, the results for `Cn1ncc2c(COc3cc(N)nc4[nH]nnc34)cccc21` [Example 15, 7-((1-Methyl-1H-indazol-4-yl)methoxy)-3H-[1,2,3]triazolo[4,5-b]pyridin-5-amine] are 0.02 µM, 0.06 µM and 0.04 µM.
`Nc1cc(OCc2nn(-c3ccccc3)nc2C(F)F)c2nn[nH]c2n1` [Example 55, 7-((5-(Difluoromethyl)-2-phenyl-2H-1,2,3-triazol-4-yl)methoxy)-3H-[1,2,3]triazolo[4,5-b]pyridin-5-amine]: the IC50 at myeloperoxidase (MPO) [1] (Amplex Red Assay IC50 value) is 0.01 µM; on myeloperoxidase (MPO) [2], 0.08 µM; on EPX, 0.01 µM.
Turning to `CCc1nn(-c2ccccc2)nc1COc1cc(N)nc2[nH]nnc12` [Example 57, 7-((5-Ethyl-2-phenyl-2H-1,2,3-triazol-4-yl)methoxy)-3H-[1,2,3]triazolo [4,5-b]pyridin-5-amine], the IC50 at myeloperoxidase (MPO) [1] (setting [3]) amounted to 0.08 µM; at myeloperoxidase (MPO) [2] (setting [4]), 0.32 µM.
On the same counts, the results for `Cc1nn(-c2ccc(N3CCNC(=O)C3)nc2)nc1COc1cc(N)nc2[nH]nnc12` [Example 61, 4-(5-(4-(((5-Amino-3H-[1,2,3]triazolo[4,5-b]pyridin-7-yl)oxy)methyl)-5-methyl-2H-1,2,3-triazol-2-yl)pyridin-2-yl)piperazin-2-one] are 0.09 µM and 0.91 µM.
In the same order, the values of `Nc1cc(OCC2CCN(C3=NC=CCN3)CC2)c2nn[nH]c2n1` [Example 85, 7-((1-(1,6-Dihydropyrimidin-2-yl)piperidin-4-yl)methoxy)-3H-[1,2,3]triazolo[4,5-b]pyridin-5-amine] are 1.08 µM and 0.64 µM.
On the same counts, the results for `CS(=O)(=O)N1CCCCC1COc1cc(N)nc2[nH]nnc12` (stereo not shown) [Example 86, 7-((1-(Methylsulfonyl)piperidin-2-yl)methoxy)-3H-[1,2,3]triazolo[4,5-b]pyridin-5-amine] are 2.03 µM and 1.1 µM.
For the molecule `Nc1cc(OCc2cccnc2Cl)c2nn[nH]c2n1` [Example 90, 7-((2-Chloropyridin-3-yl)methoxy)-3H-[1,2,3]triazolo[4,5-b]pyridin-5-amine], the IC50 amounted to 0.11 µM on myeloperoxidase (MPO) [1] (setting [3]) and 0.05 µM on myeloperoxidase (MPO) [2] (setting [4]).
